DBAASP
≈ marks a conversion by molar mass, not a printed value. Where “and” joins values, the source holds several entries; their conditions need not be identical. Equal entries are not always repeated.

Legend:
Test in all cases: ≥ marks a high value that may be exact or a test limit, other limits are often not marked, values filed in µg/mL are converted to µM
[1] = test system: Acinetobacter baumannii ATCC 19606
Staphylococcus aureus 75 = test system: Staphylococcus aureus 75
[2] = test system: Bacillus subtilis ATCC 23857
[3] = test system: Staphylococcus aureus 113
[4] = test system: Staphylococcus aureus ATCC 29213
[5] = test system: Pseudomonas aeruginosa ATCC 9027
[6] = test system: Klebsiella pneumoniae ATCC 700603
[7] = test system: Pseudomonas aeruginosa 50
[8] = test system: Pseudomonas aeruginosa 73
Escherichia coli 804 = test system: Escherichia coli 804
Escherichia coli 780 = test system: Escherichia coli 780
[9] = test system: Staphylococcus epidermidis ATCC 12228
[10] = test system: Acinetobacter baumannii 9931
[11] = test system: Acinetobacter baumannii 97830
[12] = test system: Pseudomonas aeruginosa ATCC 27853
[13] = test system: Bacillus subtilis DSM 347
[14] = test system: Micrococcus luteus ATCC 10240
Escherichia coli BL21AI = test system: Escherichia coli BL21AI
Escherichia coli DC2 = test system: Escherichia coli DC2
[15] = test system: Escherichia coli DSM 1103
[16] = test system: Klebsiella pneumoniae DSM 681
[17] = test system: Staphylococcus aureus ATCC 25923
[18] = test system: Escherichia coli ATCC 25922
[19] = test system: Psychrobacter faecalis X29
[20] = test system: Staphylococcus carnosus KHS
[21] = test system: Staphylococcus aureus ATCC 2592
[22] = test system: Rhodococcus rhodochrous X15
Serratia rubidaea X01 = test system: Serratia rubidaea X01
[23] = test system: Bacillus licheniformis X39
[24] = test system: Pseudomonas aeruginosa H744
[25] = test system: Pseudomonas aeruginosa H374
[26] = test system: Pseudomonas aeruginosa Z61
Escherichia coli UB1005 = test system: Escherichia coli UB1005
[27] = test system: Pseudomonas aeruginosa K799
[28] = test system: Salmonella enterica subsp. enterica serovar Typhimurium ATCC 14028s
[29] = test system: Pseudomonas aeruginosa H547
[30] = test system: Pseudomonas aeruginosa PAO1
Candida parapsilosis = test system: Candida parapsilosis
[31] = test system: Escherichia coli DH5alpha
Bacillus subtilis DELTA = test system: Bacillus subtilis DELTA
[32] = test system: Zymomonas mobilis ATCC 10988

CC(C)[C@H](N)C(=O)N[C@@H](CCCN=C(N)N)C(=O)N[C@@H](Cc1c[nH]c2ccccc12)C(=O)N[C@@H](Cc1c[nH]c2ccccc12)C(=O)N[C@@H](Cc1c[nH]c2ccccc12)C(=O)N[C@@H](CCCN=C(N)N)C(=O)N[C@H](C(N)=O)C(C)C [VRWWWRV]
MIC [1]: 128 µM (≈ 139 µg/mL)
MIC (Staphylococcus aureus 75): ≥ 32 µM
MIC [2]: 8 µM (≈ 8.69 µg/mL)
MIC [3]: ≥ 32 µM
MIC [4]: 32 µM (≈ 34.8 µg/mL)
MIC [5]: 64 µM (≈ 69.5 µg/mL)
MIC [6]: 64 µM (≈ 69.5 µg/mL)
MIC [7]: ≥ 64 µM
MIC [8]: ≥ 128 µM
MIC (Escherichia coli 804): ≥ 64 µM
MIC (Escherichia coli 780): ≥ 64 µM
MIC [9]: 8 µM (≈ 8.69 µg/mL)
MIC [10]: ≥ 128 µM
MIC [11]: ≥ 128 µM
MIC [12]: 64 µM (≈ 69.5 µg/mL)

CC[C@H](C)[C@H](NC(=O)[C@H](Cc1ccc(O)cc1)NC(=O)[C@@H](NC(=O)[C@@H]1CCCN1C(=O)[C@H](CCCCN)NC(=O)[C@H](CC(N)=O)NC(=O)[C@H](CC(N)=O)NC(=O)CN)C(C)C)C(=O)N1CCC[C@H]1C(=O)N[C@@H](CCCN=C(N)N)C(=O)N1CCC[C@H]1C(=O)N[C@@H](CCCN=C(N)N)C(=O)N1CCC[C@H]1C(=O)N1CCC[C@H]1C(=O)N[C@@H](Cc1cnc[nH]1)C(=O)N1CCC[C@H]1C(=O)N[C@@H](CCCN=C(N)N)C(=O)N[C@@H](CC(C)C)C(=O)N[C@H](C(N)=O)C(C)C [GNNKPVYIPRPRPPHPRLV]
MIC [13]: ≥ 56.6 µM
MIC [14]: 0.109 µM (≈ 0.24 µg/mL)
MIC (Escherichia coli BL21AI): 3.54 µM (≈ 7.81 µg/mL)
MIC (Escherichia coli DC2): 3.54 µM (≈ 7.81 µg/mL)
MIC [15]: 1.77 µM (≈ 3.9 µg/mL)
MIC [16]: 14.2 µM (≈ 31.2 µg/mL)

NCC(=O)N[C@@H](CCCN=C(N)N)C(=O)N[C@@H](Cc1c[nH]c2ccccc12)C(=O)N[C@@H](Cc1c[nH]c2ccccc12)C(=O)N[C@@H](Cc1c[nH]c2ccccc12)C(=O)N[C@@H](CCCN=C(N)N)C(=O)NCC(N)=O [GRWWWRG]
MIC [1]: > 128 µM
MIC [17]: 64 µM and 128 µM
MIC (Staphylococcus aureus 75): ≥ 64 µM
MIC [2]: 16 µM (≈ 16 µg/mL)
MIC [3]: ≥ 64 µM
MIC [4]: 8 µM (≈ 8.02 µg/mL)
MIC [5]: > 128 µM
MIC [6]: > 128 µM
MIC [7]: ≥ 128 µM
MIC [8]: ≥ 128 µM
MIC (Escherichia coli 804): ≥ 128 µM
MIC (Escherichia coli 780): ≥ 128 µM
MIC [9]: 64 µM (≈ 64.1 µg/mL)
MIC [18]: > 128 µM
MIC [10]: ≥ 128 µM
MIC [11]: ≥ 128 µM
MIC [12]: > 128 µM

CC[C@H](C)[C@H](NC(=O)CNC(=O)[C@H](CCCCN)NC(=O)[C@@H](NC(=O)[C@H](CC(C)C)NC(=O)CNC(=O)[C@H](CC(N)=O)NC(=O)[C@H](CCCCN)NC(=O)[C@@H](NC(=O)[C@H](Cc1c[nH]c2ccccc12)NC(=O)[C@H](CO)NC(=O)CNC(=O)[C@H](CCCCN)NC(=O)CNC(=O)[C@H](CCCCN)NC(=O)[C@H](CCCCN)NC(=O)[C@H](Cc1ccccc1)NC(=O)[C@H](CO)NC(=O)[C@@H](NC(=O)[C@@H](N)CCCN=C(N)N)[C@@H](C)CC)[C@@H](C)CC)[C@@H](C)CC)C(=O)N[C@@H](CCCCN)C(=O)NCC(=O)N[C@@H](CC(C)C)C(=O)NCC(=O)N[C@@H](CCCCN)C(=O)N[C@@H](CCC(=O)O)C(=O)N[C@H](C(=O)N[C@@H](CO)C(=O)N[C@@H](CC(C)C)C(=O)N[C@@H](CC(=O)O)C(=O)N[C@H](C(=O)N[C@H](C(=O)N[C@@H](CCCN=C(N)N)C(=O)N[C@H](C(=O)NCC(=O)N[C@H](C(=O)N[C@@H](CC(=O)O)C(=O)N[C@H](C(=O)N[C@@H](C)C(=O)NCC(=O)N[C@H]1CSSC[C@@H](C(=O)O)NC(=O)[C@H](CCC(=O)O)NC(=O)CNC(=O)[C@H](CCCCN)NC(=O)[C@H]([C@@H](C)CC)NC(=O)[C@H](CCCCN)NC1=O)[C@@H](C)CC)[C@@H](C)CC)[C@@H](C)O)[C@@H](C)CC)C(C)C)[C@@H](C)CC [RISFKKGKGSWIKNGLIKGIKGLGKEISLDVIRTGIDIAGCKIKGEC]
MIC [19]: 0.6 µM (≈ 3.02 µg/mL)
MIC [18]: 5 µM (≈ 25.1 µg/mL)
MIC [20]: 1.3 µM (≈ 6.54 µg/mL)
MIC [21]: 0.6 µM (≈ 3.02 µg/mL)
MIC [22]: 0.3 µM (≈ 1.51 µg/mL)
MIC (Serratia rubidaea X01): 10 µM (≈ 50.3 µg/mL)
MIC [23]: 10 µM (≈ 50.3 µg/mL)

CC[C@H](C)[C@H](NC(=O)[C@H](CC(C)C)NC(=O)[C@H](C)NC(=O)[C@@H]1CCCN1C(=O)[C@H](CC(C)C)NC(=O)CNC(=O)[C@@H](NC(=O)[C@@H](NC(=O)[C@H](CC(C)C)NC(=O)[C@@H](NC(=O)[C@H](CCCCN)NC(=O)[C@H](CO)NC(=O)CNC(=O)CNC(=O)[C@H](CCCCN)NC(=O)[C@@H](NC(=O)[C@H](CC(C)C)NC(=O)[C@H](CC(N)=O)NC(=O)[C@H](CCCCN)NC(=O)[C@@H](NC(=O)[C@H](Cc1ccccc1)NC(=O)[C@H](CO)NC(=O)[C@H](CCCCN)NC(=O)[C@H](Cc1c[nH]c2ccccc12)NC(=O)[C@@H](N)CCCCN)[C@@H](C)CC)[C@@H](C)O)[C@@H](C)CC)[C@@H](C)O)[C@@H](C)O)C(=O)N[C@@H](CO)C(=O)O [KWKSFIKNLTKGGSKILTTGLPALIS]
MIC [24]: 5.71 µM (≈ 16 µg/mL)
MIC [25]: 2.85 µM (≈ 8 µg/mL)
MIC [26]: 11.4 µM (≈ 32 µg/mL)
MIC (Escherichia coli UB1005): 1.43 µM (≈ 4 µg/mL)
MIC [27]: 22.8 µM (≈ 64 µg/mL)
MIC [28]: 15.3 µM (≈ 43 µg/mL)
MIC [29]: 11.4 µM (≈ 32 µg/mL)

CC[C@H](C)[C@H](NC(=O)[C@H](CCCCN)NC(=O)[C@H](CC(C)C)NC(=O)[C@H](CC(C)C)NC(=O)CN)C(=O)N[C@H](C(=O)N[C@@H](CCCCN)C(=O)N[C@@H](CCCCN)C(=O)N[C@@H](CC(C)C)C(=O)N[C@@H](CC(C)C)C(N)=O)[C@@H](C)CC [GLLKIIKKLL]
MIC [30]: 2.63 µM (≈ 3 µg/mL)
MIC (Candida parapsilosis): 6.15 µM (≈ 6.99 µg/mL)
MIC [31]: ≥ 87.8 µM
MIC (Bacillus subtilis DELTA): 6.15 µM (≈ 6.99 µg/mL)
MIC [32]: 13.2 µM (≈ 15 µg/mL)

CC[C@H](C)[C@H](NC(=O)[C@H](CC(C)C)NC(=O)[C@@H]1CCCN1C(=O)[C@H](CCCCN)NC(=O)[C@H](C)NC(=O)[C@@H](NC(=O)[C@@H](NC(=O)[C@H](CC(C)C)NC(=O)[C@@H](NC(=O)[C@H](CO)NC(=O)[C@@H](NC(=O)[C@H](CCCCN)NC(=O)[C@H](C)NC(=O)[C@H](CO)NC(=O)[C@@H](NC(=O)[C@H](CC(C)C)NC(=O)[C@H](CC(C)C)NC(=O)[C@H](CCCCN)NC(=O)[C@@H](NC(=O)[C@H](Cc1ccccc1)NC(=O)[C@H](CO)NC(=O)[C@H](CCCCN)NC(=O)[C@H](CCCCN)NC(=O)[C@@H](N)CCCCN)[C@@H](C)CC)[C@@H](C)O)C(C)C)C(C)C)[C@@H](C)O)[C@@H](C)O)C(=O)N[C@@H](CO)C(=O)N[C@@H](CO)C(=O)O [KKKSFIKLLTSAKVSVLTTAKPLISS]
MIC [24]: 22.9 µM (≈ 64 µg/mL)
MIC [25]: 22.9 µM (≈ 64 µg/mL)
MIC [26]: 22.9 µM (≈ 64 µg/mL)
MIC (Escherichia coli UB1005): 11.5 µM (≈ 32 µg/mL)
MIC [27]: 22.9 µM (≈ 64 µg/mL)
MIC [28]: 22.9 µM (≈ 64 µg/mL)
MIC [29]: 22.9 µM (≈ 64 µg/mL)
